# In US5219741A, “Method of making L-proline using an N-acyl-L-protine acylase” (priority 1990, dated 1993):
# “Also recorded” adds a separate entry of the source. Read-outs that look alike come from different tables or passages of the source.
# Columns and labels:
# N-acyl-L-proline acylase [1] = format: biochemical, Comamonas testosteroni DSM 5416; details: for Activity (%): no agent = 100
# Experimental: (§1) The enzymatic reaction was interrupted by pipetting 50 μl of the enzyme sample into 1.25 ml 100% acetic acid. Subsequently, 0.45 ml 0.1M tris-HCl buffer pH 7.0 and 1.25 ml ninhydrin reagent (3 g ninhydrin dissolved by heating in a mixture of 60 ml 100% acetic acid and 40 ml 6M phosphoric acid) were added. The ninhydrin reagent was freshly prepared daily. The test tubes were loosely closed with screw-on caps, incubated 30 minutes at 100° C. and subsequently cooled down in an ice bath.
# (§2) The L-proline, liberated by the enzymatic hydrolysis, forms a red dye with ninhydrin at 100° C. The absorption of the red dye was measured in a spectrophotometer at 480 nm relative to a control batch without crude extract (=substrate blank). The concentration of the L-proline produced was determined using a straight calibration line with L-proline in a range of 5 to 100 nmoles per 50 μl specimen. The enzyme activity was indicated in international units; thus, one unit (U) corresponded to an amount of 1 μmole L-proline produced per minute.
# The influence of various chemical agents as well as metal cations and anions on the reaction speed of the hydrolytic splitting of N-acetyl-L-proline was determined at 30° C. in a reaction batch with the following composition: […]
# The enzyme was pre-incubated for 10 minutes at 30° C. with the compound before the addition of substrate to start the reaction.
# The enzyme was pre-incubated for 10 minutes at 30° C. with the agent before the substrate was added to start the reaction.
# The enzyme was pre-incubated 10 minutes at 30° C. with the agent before the substrate was added to start the reaction. The concentration of the anions was 10 mM in each instance.
# [2] = system: 1,10-phenanthroline-inactivated acylase (apoenzyme); assay: Influence of cations on the 1,10-phenanthroline-inactivated acylase; format: biochemical, Comamonas testosteroni DSM 5416
# Experimental: FPLC/Mono Q purified enzyme was incubated for 24 hours at 4° C. in the presence of 1 mM 1,10-phenanthroline. Subsequently, enzyme and the chelating agent 1,10-phenanthroline were separated by gel filtration via Sephadex G-25M (PD-10, firm Pharmacia/LKB, Uppsala, Sweden). The enzyme-containing fractions were combined and the activity determined without and in the presence of various cations (1 mM).
# [3] = system: Comamonas testosteroni DSM 5416; assay: Growth of the strain in culture medium (OD600); format: cell-based
# Experimental: Strains which appeared uniform according to the colony morphology and the microscopic image were then cultivated in 100 ml liquid medium (500 ml Erlenmeyer flask with top and 4 lateral baffles) at 30° C. on a rotary agitator machine at 200 rpms. The culture medium had the following composition: […]
# (§3) The carbon source of the culture medium with a concentration of 4 g/l was varied and the influence on growth and acylase formation determined.
# (§4) The concentration of N-acetyl-L-proline was varied in a range of 1 g/l-5 g/l in steps of 1 g/l in the culture medium as described in Example 1.
# (§5) The concentration of (NH4)2 SO4 was varied in a range of 1 g/l-5 g/l in steps of 1 g/l in the culture medium as described in Example 1.
# (§6) The concentration of yeast extract was varied in a range of 1 g/l-5 g/l in steps of 1 g/l in the culture medium as described in Example 1.
# (§7) The N-acetyl-L-proline concentration was reduced to 0.2 to 1.0 g/l in the culture medium as described in Example 1 and 4 g/l Na acetate were additionally added.
# (§8) The method described above under f) was followed. However, the inductor, N-acetyl-L-proline, was not added to the nutrient medium until the late exponential growth phase after an incubation time of 12 hours.
# (§9) The method described above under f) was followed. In addition to N-acetyl-L-proline, various N-acetyl- and N-chloroacetyl amino acids were added to the nutrient medium in a concentration of 1 g/l.
# [4] = system: N-acyl-L-proline acylase formation in Comamonas testosteroni DSM 5416; assay: Acylase formation: specific activity of N-acyl-L-proline acylase in crude extract; format: cell-based
# Experimental: After 24 to 48 hours, the cell-containing nutrient medium was centrifuged (15 min., 4,500 g in a cooling centrifuge), the cells were washed twice with 0.9% (w/v) NaCl solution and resuspended in 10 ml 0.1M tris-HCl buffer, pH 7.0.
# The microorganisms of this suspension were macerated by ultrasound treatment (Sonifier-Cell Disrupter B-30 of the firm Branson Sonic Power Co., Danbury, Conn., USA) (2 minutes pulsating, corresponding to 1 minute of pure ultrasonic radiation. The cell fragments and non-macerated cells were centrifuged in a cooled centrifuge 30 minutes at 40,000 g and 5° C. The clear supernatant (=crude extract) was used in an enzyme test.
# The reaction was started by adding crude extract and the reaction batches customarily incubated for 10 minutes at 30° C. The incubation time and the amount of crude extract were selected so that the linearity range of the enzymatic reaction and of the subsequent proline detection were not exceeded.
# as §1, §2
# The protein determination was carried out with a protein-determination kit of the firm Pierce Chemical Co., Rockford, Ill., USA, according to Bradford, Anal. Biochem. 72, pp. 248-254 (1976).
# as §3, §4, §5, §6, §7, §8, §9
# N-acyl-L-proline acylase [5] = assay: Substrate specificity: hydrolysis of N-acyl amino acids and proline derivatives; format: biochemical, Comamonas testosteroni DSM 5416; details: 20 mM substrate 1.0 ml in 2.0 ml batch, 30° C., pH 7.0; N-acetyl-L-proline = 100%; amino-acid analyzer
# Experimental: The activity of acylase was determined with various N-acetyl-L-amino acids and N-chloroacetyl-L-amino acids in a reaction batch with the following composition:
# The reaction temperature was 30° C. and the incubation time 15 minutes to 24 hours. 0.2 ml samples of the reaction batch in each instance were mixed at different times with 0.2 ml 10% (w/v) trichloroacetic acid and the denatured protein centrifuged off for 10 minutes at 11,000 rpms in a table centrifuge. The supernatant was diluted with a 0.1M Na citrate buffer pH 2.2 with 25% (v/v) 2.2-thiodiethanol and 0.1% (v/v) phenol 1:5 and 1:50 respectively. The amino acids released were quantitatively detected by an amino-acid analyzer LC 5001 of the firm Biotronic, Maintal, Federal Republic of Germany. In Table 16, the substrates marked with * and the corresponding products were quantified by means of HPLC.
# The activity of the acylase was determined with various proline derivatives as under a).
# [6] = (NH4)2 SO4 1 g/l in culture medium, 23 hours
# [7] = (NH4)2 SO4 2 g/l in culture medium, 23 hours
# [8] = (NH4)2 SO4 3 g/l in culture medium, 23 hours
# [9] = (NH4)2 SO4 4 g/l in culture medium, 23 hours
# [10] = (NH4)2 SO4 5 g/l in culture medium, 23 hours
# [11] = carbon source 4 g/l in culture medium
# [12] = metal cation salt 1 mM, native enzyme
# [13] = metal cation salt 10 mM, native enzyme
# [14] = inactivated enzyme after gel filtration + cation 1 mM, native enzyme = 100, no agent = 21
# [15] = inductor 1 g/l + 4 g/l Na acetate, 24 hours
structure (smiles),measurement,setting,value
"c1cnc2c(c1)ccc1cccnc12 [1,10 phenanthroline, 1,10-phenanthroline]",Activity (%),"N-acyl-L-proline acylase [1]; chemical agent 1 mM, 10 min pre-incubation at 30° C.",27%
same,Activity (%),"N-acyl-L-proline acylase [1]; chemical agent 10 mM, 10 min pre-incubation at 30° C.",1%
same,Influence on the acylase activity (in words),N-acyl-L-proline acylase [1]; native enzyme,inhibiting action; also recorded: significantly inhibit
same,Activity (%),"[2]; enzyme incubated 24 hours at 4° C. with 1 mM 1,10-phenanthroline, before gel filtration, native enzyme = 100",2%
N.N.O=S(=O)(O)O [(NH4)2 SO4],Growth (OD600),[3]; [6],5.24 OD600
same,Growth (OD600),[3]; [7],5.67 OD600
same,Growth (OD600),[3]; [8],5.47 OD600
same,Growth (OD600),[3]; [9],5.44 OD600
same,Growth (OD600),[3]; [10],5.47 OD600
same,Optimum concentration in the culture medium for acylase formation,[4],2 g/L
same,Spec. activity (U/mg),[4]; [6],1.71 U/mg
same,Spec. activity (U/mg),[4]; [7],1.91 U/mg
same,Spec. activity (U/mg),[4]; [8],1.53 U/mg
same,Spec. activity (U/mg),[4]; [9],1.59 U/mg
same,Spec. activity (U/mg),[4]; [10],1.32 U/mg
CC(=O)O [Acetate],Growth (OD600),[3]; [11],2.3 OD600
same,Acylase formation / induction (in words),[4],not repressed
same,Spec. activity (U/mg),[4]; [11],< 0.01 U/mg
[Ba+2].[Cl-].[Cl-] [BaCl2],Activity (%),N-acyl-L-proline acylase [1]; [12],100%
same,Activity (%),N-acyl-L-proline acylase [1]; [13],99%
same,Activity (%),[2]; [14],18%
CCCC(=O)O [Butyrate],Growth (OD600),[3]; [11],1.8 OD600
same,Spec. activity (U/mg),[4]; [11],< 0.01 U/mg
[Ca+2].[Cl-].[Cl-] [CaCl2],Activity (%),N-acyl-L-proline acylase [1]; [12],100%
same,Activity (%),N-acyl-L-proline acylase [1]; [13],91%
same,Activity (%),[2]; [14],17%
[Cl][Cd][Cl] [CdCl2],Activity (%),N-acyl-L-proline acylase [1]; [12],89%
same,Activity (%),N-acyl-L-proline acylase [1]; [13],65%
same,Influence on the acylase activity (in words),N-acyl-L-proline acylase [1]; native enzyme,inhibiting action
same,Activity (%),[2]; [14],20%
CC(C)C[C@H](NC(=O)CCl)C(=O)O [ClAc--L--Leu],Rel. activity (%),N-acyl-L-proline acylase [5],1.9%
same,Growth (OD600),[3]; [15],2.65 OD600
same,Spec. activity (U/mg),[4]; [15],< 0.01 U/mg
O=C(CCl)N[C@@H](Cc1ccccc1)C(=O)O [ClAc--L--Phe],Rel. activity (%),N-acyl-L-proline acylase [5],1.0%
same,Growth (OD600),[3]; [15],2.89 OD600
same,Spec. activity (U/mg),[4]; [15],< 0.01 U/mg
O=C(CCl)N[C@@H](Cc1ccc(O)cc1)C(=O)O [ClAc--L--Tyr],Rel. activity (%),N-acyl-L-proline acylase [5],1.0%
same,Growth (OD600),[3]; [15],2.76 OD600
same,Spec. activity (U/mg),[4]; [15],< 0.01 U/mg
[Cl-].[Cl-].[Co+2] [CoCl2],Activity (%),N-acyl-L-proline acylase [1]; [12],103%
same,Activity (%),N-acyl-L-proline acylase [1]; [13],92%
same,Influence on the apoenzyme (in words),"[2]; 1,10-phenanthroline-inactivated acylase",activating action
same,Activity (%),[2]; [14],80%
OCC(O)CO [Glycerol],Growth (OD600),[3]; [11],1.1 OD600
same,Spec. activity (U/mg),[4]; [11],< 0.01 U/mg
N[C@@H](CC(=O)O)C(=O)O [L-aspartate],Growth (OD600),[3]; [11],2.0 OD600
same,Spec. activity (U/mg),[4]; [11],< 0.01 U/mg
CC(C)C[C@H](N)C(=O)O [L-leucine],Growth (OD600),[3]; [11],2.6 OD600
same,Spec. activity (U/mg),[4]; [11],< 0.01 U/mg
O=C(O)[C@@H]1CCCN1 [L-proline],Growth (OD600),[3]; [11],3.9 OD600
same,Spec. activity (U/mg),[4]; [11],< 0.01 U/mg
CC(O)C(=O)O (stereo not drawn) [Lactate],Growth (OD600),[3]; [11],3.0 OD600
same,Spec. activity (U/mg),[4]; [11],< 0.01 U/mg
N=C(N)NCCC[C@H](N)C(=O)O [Larginine],Growth (OD600),[3]; [11],No growth
